Legend:
[1] = test system: lymphoma patient derived xenograft (PDX); test: Humanized NSG mice engrafted with lymphoma PDX: serum cytokines, body weight, tumor growth; type: in vivo
Protocol: Humanized NSG mice were engrafted with a lymphoma PDX (5 million cells, s.c.). When tumors reached 200 mm^3, mice were randomized in groups of 8 or 7 based on their tumor size. They were treated with vehicle (i.v.), 0.5 mg/kg CD19-TCB (i.v.) as a monotherapy, 20 mg/kg dasatinib (p.o.) alone or in combination with 0.5 mg/kg CD19-TCB (i.v.). The serum of each mouse in the vehicle, CD19-TCB, and CD19-TCB+dasatinib groups and of n=4 mice in the dasatinib group was collected by tail-vein bleeding 6 hrs after the first treatment with CD19-TCB.
Cytokine levels in each individual mouse from the experiment described in FIG. 37. The levels of IFN-γ (A), TNF-α (B), IL-2 (C) and IL-6 (D) were measured in the serum by multiplex cytokine analysis using Luminex. Mean of n=6-8 mice+/−SEM with *p≤0.05, **p≤0.01, ***p≤0.001 by 1 way ANOVA (Kruskal Wallis test).
Body weight loss for each individual mouse from the experiment described in FIG. 37. The change in body weight [%] is measured as a percentage of the body weight before first treatment with CD19-TCB for each mouse. Box and whiskers showing minimum to maximum values of n=6-8 mice per group.
Tumor growth curves of the experiment described in FIG. 37. Tumor growth curves were plotted from tumor volumes measured using a Caliper, mean of n=6-8 mice+SD with **p≤0.01 by 1 way ANOVA (Kruskal Wallis test).
We evaluated the impact of transient interventions with dasatinib on CD19-TCB anti-tumor activity in humanized NSG mice engrafted with a lymphoma patient derived xenograft (PDX). Therefore, mice were treated with either vehicle, 0.5 mg/kg CD19-TCB as a monotherapy, or 20 mg/kg dasatinib, alone or in combination with 0.5 mg/kg CD19-TCB (FIG. 37). Dasatinib was given one hour prior and 6 hrs after the first treatment with CD19-TCB and then twice per day for the next 2 days to prevent cytokine release, predominantly occurring upon the first infusion. Moreover, dasatinib was also administered one hour before each subsequent treatment to prevent eventual residual cytokine secretion (FIG. 37).

[2] = test system: A375 NucLight Red (NLR) target cells; test: Incucyte real time killing assay, PBMCs + RMF peptide-pulsed A375 NLR target cells + HLA-A2 WT1-TCB with escalating dasatinib; type: cell-based, human
Protocol: (§1) FIG. 1. Real time killing of red fluorescent A375 cells loaded with RMF peptides by 10 nM HLA-A2 WT-1-TCB (A) and of red fluorescent MKN45 cells by 1 nM CEA-TCB (B) in the presence of different dasatinib concentrations ranging from 100 nM to 0 nM. (A) A375 NucLight Red (NLR) target cells were pulsed with RMF peptides (2 hours before killing assay) and co-cultured with HLA-A2 WT1-TCB, dasatinib (dasa) and PBMCs, effector to target ratio (E:T)=10:1 (E:T=50 000 PBMCs:5000 target cells). Killing was followed by Incucyte® (1 scan every 3 hours, zoom 10×, phase and red 400 ms acquisition time). % Killing was measured by normalizing total red area with values at t=0 hour and target cells+PBMCs+dasatinib (without TCB) control wells for each time point. Means of technical replicates+/−SEM for 1 donor. (B) MKN45 NLR target cells were co-cultured with CEA TCB, dasatinib and PBMCs, E:T=10:1 (E:T=50 000 PBMCs:5000 target cells). Killing was followed by Incucyte (1 scan every 3 hours, zoom 10×, phase and red 400 ms acquisition time). % Killing was measured by normalizing total red area with values at t=0 hour and target cells+PBMCs+dasatinib control wells for each time point. Means of technical replicates+/−SEM for 1 donor.
(§2) To assess the inhibitory effect of dasatinib on TCB-mediated target-cell killing, we conducted killing assays using peripheral blood mononuclear cells (PBMCs), NucLight Red (NLR) target-cells and respective TCB in media supplemented with escalating concentrations of dasatinib. The Incucyte® system (Essen Bioscience) was used to capture the loss of red fluorescent protein signal over time as a readout of target-cell killing.

CD4+ and CD8+ T cells = test: T cell degranulation, CD107a staining by FACS at 24h, SKM-1 + HLA-A2 WT-1-TCB; type: cell-based, human
Protocol: FIG. 13. In vitro killing assay set-up and timelines to assess T cell degranulation. PBMCs were co-cultured with SKM-1 target cells (E:T=5:1) and 10 nM HLA-A2 WT-1-TCB in the presence and absence of 100 nM dasatinib. Golgistop and Golgiplug (both BD) and CD107a antibody were added 3 hours after activation with TCB to prevent cytokine externalization.
FIG. 14. CD107a+ populations among CD4+ and CD8+ T cells in the presence and absence of dasatinib for one representative donor, in the assay of FIG. 13. Expression of CD107a on CD4+ and CD8+ T cells was measured by FACS at 24h.
FIG. 15. Percentages of CD107a+ cells among CD4+ (A) and CD8+ (B) T cells in the presence and absence of dasatinib in the assay of FIG. 13. Expression of CD107a on CD4+ and CD8+ T cells was measured by FACS at 24h. Mean of 3 donors+/−SD.
(§3) To assess whether dasatinib can efficiently prevent TCB-mediated target cell killing by activated T cells, we set up an in vitro killing assay with two stimulation steps, mimicking an ON/OFF switch. During the first stimulation, PBMCs were activated on carboxyfluorescein succinimidyl ester (CFSE)-labelled SKM-1 tumors cells with HLA-A2 WT-1-TCB in the absence of dasatinib (ON). During the second stimulation, activated PBMCs together with dead CFSE labelled SKM-1 tumors cells were washed and re-stimulated by HLA-A2 WT-1-TCB on fresh CTV labelled SKM-1 tumor cells in the presence of 100 nM dasatinib (OFF). The use of CFSE and CTV labelled SKM-1 tumors allowed to differentiate tumor cells used for first and second stimulation by flow cytometry (FIG. 8). […] Consistently, T cells were activated and functional before the addition of dasatinib in the system. 87.6% of CTV labelled SKM-1 cells were alive upon second stimulation with 10 nM HLA-A2 WT-1 TCB in the presence of 100 nM dasatinib, but only 2.04% of CTV labelled SKM-1 tumor cells were alive upon restimulation with 10 nM HLA-A2 WT-1-TCB in the absence of dasatinib (FIG. 10). […]

[3] = test system: IFN-γ, IL-2 and TNF-α release; test: Cytokine release after second stimulation with HLA-A2 WT-1-TCB in the SKM-1 assay (Luminex); type: cell-based, human; details: 100 nM dasatinib, versus positive control ON/ON
Protocol: FIG. 12. Cytokine release after the second stimulation with HLA-A2 WT-1-TCB with and without dasatinib. Supernatants from the killing assay of FIG. 8 were collected 24 hours after the second stimulation and IFN-γ (A), TNF-α (B) and IL-2 (C) were measured with a multiplex cytokine kit (Luminex technology). n=3 donors.
as §3, with “system.” for “system. 87.6% of CTV labelled SKM-1 cells were alive upon second stimulation with 10 nM HLA-A2 WT-1 TCB in the presence of 100 nM dasatinib, but only 2.04% of CTV labelled SKM-1 tumor cells were alive upon restimulation with 10 nM HLA-A2 WT-1-TCB in the absence of dasatinib (FIG. 10).”

MKN45 NLR target cells = test: Incucyte real time killing assay, PBMCs + MKN45 NLR target cells + CEA-TCB with escalating dasatinib; type: cell-based, human
Protocol: as §1, §2

[4] = 146 patients, 100 mg dasatinib QD; cited from earlier work
[5] = 10 nM HLA-A2 WT-1-TCB + 100 nM dasatinib, 24h, one representative donor

With `Cc1nc(Nc2ncc(C(=O)Nc3c(C)cccc3Cl)s2)cc(N2CCN(CCO)CC2)n1` [dasatinib, N-(2-chloro-6-methylphenyl)-2-[[6-[4-(2-hydroxyethyl)-1-piperazinyl]-2-methyl-4-pyrimidinyl]amino]-5-thiazole carboxamide monohydrate] as the compound, how does the “CD19-TCB-mediated cytokine release (IFN-γ, TNF-α, IL-2, IL-6) upon the first infusion” value ([1]; 20 mg/kg dasatinib p.o. + 0.5 mg/kg CD19-TCB i.v., serum 6 hrs) read?
Its value is “strongly reduced”.

What about the body weight change ([1]; 24 hrs after the first CD19-TCB treatment, 20 mg/kg dasatinib) of the same compound?
Its body weight change is “milder body weight change”.

And the “interference with CD19-TCB anti-tumor efficacy (tumor growth curves)” value ([1]; transient use of 20 mg/kg dasatinib with 0.5 mg/kg CD19-TCB)?
Its value is “minimally, yet not significantly, interfered”.

What about the inhibition at 0.0125 µM ([2]; Homo sapiens, A-375, 12.5 nM dasatinib, 10 nM HLA-A2 WT-1-TCB, read-out: inhibition of target-cell killing) of the same compound?
Its inhibition at 0.0125 µM is 78.2%.

And the inhibition at 0.05 µM ([2]; Homo sapiens, A-375, 50 nM (24.4 ng/mL) dasatinib, 10 nM HLA-A2 WT1-TCB, read-out: inhibition of target-cell killing)?
Its inhibition at 0.05 µM is 89%.

And the inhibition at 0.1 µM ([2]; Homo sapiens, A-375, 100 nM (48.8 ng/mL) dasatinib, 10 nM HLA-A2 WT1-TCB, read-out: inhibition of target-cell killing)?
Its inhibition at 0.1 µM is 86.5%.

What about the inhibition of killing ([2]; dasatinib concentrations below 12.5 nM, 10 nM HLA-A2 WT-1-TCB) of the same compound?
Its inhibition of killing is “only partially inhibited killing”.

And the “cells positive for CD107a among CD4+ T cells” value (CD4+ and CD8+ T cells; [5])?
The value was 1.22%.

And the “cells positive for CD107a among CD8+ T cells” value (CD4+ and CD8+ T cells; [5])?
Its value is 2.08%.

What about the “TCB-induced CD107a expression on CD4+ and CD8+ T cells” value (CD4+ and CD8+ T cells; 100 nM dasatinib, 3 donors) of the same compound?
The value was “prevented”.

What about the “IFN-γ, IL-2 and TNF-α release upon re-stimulation” value [3] of the same compound?
The value was “fully inhibited”.

And the inhibition at 0.0125 µM (MKN45 NLR target cells; Homo sapiens, MKN-45, 12.5 nM dasatinib, 1 nM CEA-TCB, read-out: inhibition of target-cell killing)?
The inhibition at 0.0125 µM was 69%.

And the inhibition at 0.05 µM (MKN45 NLR target cells; Homo sapiens, MKN-45, 50 nM (24.4 ng/mL) dasatinib, 1 nM CEA-TCB, read-out: inhibition of target-cell killing)?
Its inhibition at 0.05 µM is 88.2%.

What about the inhibition at 0.1 µM (MKN45 NLR target cells; Homo sapiens, MKN-45, 100 nM (48.8 ng/mL) dasatinib, 1 nM CEA-TCB, read-out: inhibition of target-cell killing) of the same compound?
Its inhibition at 0.1 µM is 90.4%.

And the “threshold in vitro concentration for preventing T cell mediated target-cell lysis” value (MKN45 NLR target cells; PBMCs stimulated with both TCB (CEA-TCB, HLA-A2 WT-1-TCB))?
The value was 12.5 nM.

And the inhibition of killing (MKN45 NLR target cells; dasatinib concentrations below 12.5 nM, 1 nM CEA-TCB)?
Its inhibition of killing is “only partially inhibited killing”.

What about the Cmax [4] of the same compound?
Its Cmax is 54.6 ng/mL.

What about the Cmin [4] of the same compound?
The Cmin was 2.61 ng/mL.

— patent publication US20220088195A1, “Prevention or mitigation of T-cell bispecific antibody-related adverse effects” (Hoffmann-La Roche Inc., priority 2020, published 2022)
